The values below come from patent US20110184068A1, “USE OF (HALOBENZYLOXY) BENZYLAMINO-PROPANAMIDES FOR THE MANUFACTURE OF MEDICAMENTS ACTIVE AS SODIUM AND/OR CALCIUM CHANNEL SELECTIVE MODULATORS” (Newron Pharmaceuticals S.p.A., priority 2004, published 2011).

In one experiment the target is T1, MAO-B (Rattus norvegicus, UniProt P19643).
T1 construct: Membrane preparations (crude mitochondrial fraction); from tissue; host or cells: rat brain, crude mitochondrial fraction
T1 sequence (P19643 1-520): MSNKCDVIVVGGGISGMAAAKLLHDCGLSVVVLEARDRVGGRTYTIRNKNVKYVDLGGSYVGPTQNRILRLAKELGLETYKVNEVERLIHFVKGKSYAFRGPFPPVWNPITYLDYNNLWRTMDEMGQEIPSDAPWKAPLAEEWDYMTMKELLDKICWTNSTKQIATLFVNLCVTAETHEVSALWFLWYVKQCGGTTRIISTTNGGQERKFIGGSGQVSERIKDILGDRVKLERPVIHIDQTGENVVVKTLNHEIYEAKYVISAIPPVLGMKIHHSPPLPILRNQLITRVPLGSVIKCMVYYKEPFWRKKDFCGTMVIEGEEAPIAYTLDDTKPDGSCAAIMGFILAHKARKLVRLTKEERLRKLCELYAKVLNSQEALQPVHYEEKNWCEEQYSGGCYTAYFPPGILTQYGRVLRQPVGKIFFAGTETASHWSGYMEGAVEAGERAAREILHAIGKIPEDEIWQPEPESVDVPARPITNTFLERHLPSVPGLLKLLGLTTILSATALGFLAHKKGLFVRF
The experiment can be described thus: In vitro MAO-B enzyme activity assay (radioenzymatic, 14C-phenylethylamine). The class given is biochemical. The note with it: rat brain crude mitochondrial fraction; 30 min preincubation; concentration inhibiting 90% enzyme activity. On the procedure: In Vitro MAO-B Enzyme Activity Assay
Membrane preparations (crude mitochondrial fraction): male Wistar rats (Harlan, Italy-175-200 g) were sacrificed under light anaesthesia and brains were rapidly removed and homogenized in 8 vol. of ice-cold 0.32 M sucrose buffer containing 0.1 M EDTA, pH 7.4. The crude homogenate was centrifuged at 2220 rpm for 10 min and the supernatant recovered. The pellet was homogenized and centrifuged again and the two supernatants were pooled and centrifuged at 9250 rpm for 10 min, +4° C. The pellet was resuspended in fresh buffer and centrifuged at 11250 rpm for 10 min, +4° C. The resulting pellet was stored at −80° C. until use.
In vitro enzyme activity assay: the enzyme activities were assessed with a radioenzymatic assay using the selective substrate ^14C-phenylethylamine (PEA) for MAO-B.
The mitochondrial pellet (500 μg protein) was resuspended in 0.1M phosphate buffer pH 7.4 and 500 μl was added to 50 μl of the test compound or buffer for 30 min at 37° C. (preincubation) then the substrate (50 μl) was added. The incubation was carried out for 10 min at 37° C. (^14C-PEA, 0.5 μM).
The reaction was stopped by adding 0.2 ml HCl or perchloric acid. After centrifugation, the deaminated metabolites were extracted with 3 ml of toluene and the radioactive organic phase measured by liquid scintillation spectrometry at 90% efficiency. Radioactivity in the eluate indicates the production of neutral and acidic metabolites formed as a result of MAO-B activity.
The enzymatic activity was expressed as nmoles of substrate transformed/mg protein/min. The activity of MAO-B in the sample was expressed as a percentage of control activity in the absence of inhibitors after subtraction of appropriate blank values.
The drug inhibition curves were obtained from at least eight different concentrations, each in duplicate (10^−10 to 10^−5 M) and the IC90 values (the drug concentration inhibiting 90% enzyme activity) with confidence intervals determined using linear regression analysis. (aided-computer program).
To reach a significant increase in neurotransmitter levels, MAO-B enzyme activity has to be blocked at least by 90%.

A further experiment deals with T2, N-type calcium channels (Homo sapiens, UniProt Q00975).
T2 construct: IMR32 preferentially express on the membrane surface N-type calcium channels; endogenous in cells; host or cells: IMR32 human neuroblastoma cells, differentiated with dibutyryl-cAMP and bromodeoxyuridine
Kind of experiment: Calcium influx assay (fluorescence, differentiated IMR32 cells with nifedipine). The experiment is classed as cell-based. The note with it: 1 μM nifedipine, 100 mM KCl depolarization, read-out: Ca 2+ N-Type IC50. On the procedure: Under differentiating conditions, IMR32 preferentially express on the membrane surface N-type calcium channels. The remaining L-type calcium channels were blocked using the selective L type blocker, nifedipine. In these experimental conditions, only N type channels can be detected.
IMR32 cells were differentiated using 1 mM dibutyryl-cAMP and 2.5 μM bromodeoxyuridine for 8 days (4 times) in 225 cm^2 flask, then detached, seeded at 200,000 cells/well on 96 polylysine-coated plates and further incubated for 18-24 h in the presence of differentiating buffer before use.
The Ca^2+ Kit Assay (Molecular Devices), based on a fluorescent calcium indicator 485-535 nm wavelength, was used.
Differentiated cells were incubated with dye loading for 30 min at 37° C. then, nifedipine alone (1 μM) or in the presence of w-conotoxin or test compounds were added for further 15 min.
The fluorescence (485-535 nm) was measured before and after (30-40 sec) the automated injection of 100 mM KCl depolarizing solution using a Victor plate reader (Perkin Elmer).
The inhibition curves were calculated from 5 concentrations, each in triplicate, and the IC50 determined using a linear regression analysis.
The activity on N-type Calcium channel, expressed as IC50 of the (R)-isomer of this invention and the comparison compounds is reported in Table I.

The target in another experiment is T3, Na channel Nav 1.3 (Homo sapiens, UniProt Q9NY46).
T3 construct: expressed in transfected cells; host or cells: Xenopus laevis oocytes injected with Nav1.3 cRNA
T3 sequence (Q9NY46 whole entry): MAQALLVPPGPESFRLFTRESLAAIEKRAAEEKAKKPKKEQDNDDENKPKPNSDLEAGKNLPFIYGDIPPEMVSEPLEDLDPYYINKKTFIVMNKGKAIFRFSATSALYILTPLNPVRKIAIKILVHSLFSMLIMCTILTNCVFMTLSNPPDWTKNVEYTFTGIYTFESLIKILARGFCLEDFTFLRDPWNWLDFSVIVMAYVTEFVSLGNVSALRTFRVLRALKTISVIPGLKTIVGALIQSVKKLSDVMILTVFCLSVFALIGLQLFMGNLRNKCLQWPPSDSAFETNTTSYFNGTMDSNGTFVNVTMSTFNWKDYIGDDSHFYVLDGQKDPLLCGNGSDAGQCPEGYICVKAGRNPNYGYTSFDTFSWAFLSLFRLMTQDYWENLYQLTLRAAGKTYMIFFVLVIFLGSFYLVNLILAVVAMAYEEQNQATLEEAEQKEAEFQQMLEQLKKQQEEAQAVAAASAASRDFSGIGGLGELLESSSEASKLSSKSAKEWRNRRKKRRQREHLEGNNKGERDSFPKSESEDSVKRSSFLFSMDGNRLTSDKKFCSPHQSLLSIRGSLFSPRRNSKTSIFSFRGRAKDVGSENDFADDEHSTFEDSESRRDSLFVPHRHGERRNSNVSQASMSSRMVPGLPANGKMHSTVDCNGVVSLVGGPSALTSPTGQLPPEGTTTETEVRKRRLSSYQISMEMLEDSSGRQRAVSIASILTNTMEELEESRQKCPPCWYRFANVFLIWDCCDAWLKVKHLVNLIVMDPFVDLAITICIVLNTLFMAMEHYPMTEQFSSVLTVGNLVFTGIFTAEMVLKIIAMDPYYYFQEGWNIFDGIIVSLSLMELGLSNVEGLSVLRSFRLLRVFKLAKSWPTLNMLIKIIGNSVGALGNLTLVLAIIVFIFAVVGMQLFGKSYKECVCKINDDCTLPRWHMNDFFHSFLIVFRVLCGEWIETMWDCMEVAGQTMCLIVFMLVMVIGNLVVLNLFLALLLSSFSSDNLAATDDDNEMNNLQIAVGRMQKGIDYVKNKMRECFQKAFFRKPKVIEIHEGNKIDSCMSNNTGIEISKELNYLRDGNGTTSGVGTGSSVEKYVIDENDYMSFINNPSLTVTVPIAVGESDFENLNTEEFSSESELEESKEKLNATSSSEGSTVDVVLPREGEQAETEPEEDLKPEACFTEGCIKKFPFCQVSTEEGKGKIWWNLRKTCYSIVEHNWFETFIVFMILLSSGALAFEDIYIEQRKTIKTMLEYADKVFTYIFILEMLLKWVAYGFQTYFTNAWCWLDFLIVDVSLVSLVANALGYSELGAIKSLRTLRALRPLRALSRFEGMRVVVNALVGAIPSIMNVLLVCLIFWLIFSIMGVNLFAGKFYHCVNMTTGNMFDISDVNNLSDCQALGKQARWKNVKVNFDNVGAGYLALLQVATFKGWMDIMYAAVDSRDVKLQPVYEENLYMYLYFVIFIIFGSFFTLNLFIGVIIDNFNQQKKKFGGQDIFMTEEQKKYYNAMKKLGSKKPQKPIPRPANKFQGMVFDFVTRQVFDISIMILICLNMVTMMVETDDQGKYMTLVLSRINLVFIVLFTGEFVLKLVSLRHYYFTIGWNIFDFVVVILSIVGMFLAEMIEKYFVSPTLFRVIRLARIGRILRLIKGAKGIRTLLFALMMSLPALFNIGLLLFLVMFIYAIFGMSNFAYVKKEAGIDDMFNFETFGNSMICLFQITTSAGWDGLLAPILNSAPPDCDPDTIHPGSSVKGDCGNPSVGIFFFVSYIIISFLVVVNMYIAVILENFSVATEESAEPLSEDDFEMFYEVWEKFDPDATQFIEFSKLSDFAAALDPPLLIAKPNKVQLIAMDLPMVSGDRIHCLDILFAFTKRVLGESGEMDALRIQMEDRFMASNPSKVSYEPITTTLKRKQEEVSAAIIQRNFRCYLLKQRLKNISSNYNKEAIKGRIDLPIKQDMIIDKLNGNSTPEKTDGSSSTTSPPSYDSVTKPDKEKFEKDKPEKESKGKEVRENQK
The experiment can be described thus: Electrophysiological assay, tonic block, two electrodes voltage clamp in Xenopus oocytes. The experiment is classed as cell-based. The note with it: depolarized (-40 mV, half max current availability) condition, read-out: Nav 1.3 Dep. Curr IC50. On the procedure: Electrophysiological Assay
Experiments for the determination of the tonic block are carried out on isolated Xenopus oocytes expressing the Na channel Nav 1.3. Currents are recorded using the two electrodes voltage clamp (TEVC) technique
The day after the preparation, the oocytes are injected (Drummond Nanoject) with 20 ng Nav1.3 cRNA and maintained in NDE.
Starting from 48 h after the mRNA injection whole cell currents are recorded using a two-microelectrode voltage clamp automated workstation.
Compounds are prepared in stock solutions (20 mM) and dissolved to the final concentrations in the external bath solution.
The current/voltage (I/V) relationship for the Nav1.3 currents expressed in oocytes was first studied in order to determine the membrane potential evoking the maximal activation.
The steady-state inactivation properties of the Nav1.3 currents were then studied in order to determine the membrane potentials for the resting state (Vrest) at which channel availability is maximal (Imax), and the membrane potential for the half maximal inactivation (V ½) producing half of the max current availability (I ½) respectively. This two voltage conditions were then used for the evaluation of the voltage dependence of the tonic block.
Finally a two-step protocol was used to determine the voltage dependence of the block of Nav1.3: the oocytes were clamped at −80 mV, the currents were activated by a 100 ms step pulse to 0 mV (Vtest) from a 3000 ms preconditioning potential at −80 mV (resting, Imax condition) and −40 mV (depolarized, I ½ condition), respectively.
Current amplitudes in the two conditions were recorded in the absence and in the presence of different concentrations of compound (washout was made in between) in order to determine the concentration-inhibition curves and IC50 values for the tonic block in the depolarized (half max current availability) conditions.
The activity on Nav 1.3 sodium channel, expressed as IC50 of the (R)-isomers of this invention and of the comparison compounds is reported in Table I.

The subject of another experiment is mice. Kind of experiment: Mice formalin test. The class given is in vivo. Conditions: 20 mg/kg p.o. 15 min before formalin; cumulative licking time, late phase 30-40 min, vs control group. On the procedure: According to a modified protocol from Rosland et al., (1990) mice were injected subcutaneously (s.c.) with 20 μL of 2.7% solution of formalin into the plantar surface of left hindpaw and placed immediately into clear PVC observation chambers (23×12×13 cm).
The test compound (20 mg/kg) was administered p.o. 15 min before formalin injection in a volume of 10 ml/kg body weight to groups of 10 mice per dose. Control group was treated with vehicle.
Pain behavior was quantified by counting the cumulative licking time (seconds) of the injected paw with formalin. Measurements were taken during the late phase 30-40 min after formalin injection (Tjolsen et al 1992).
The analgesic effect of the compounds was calculated as the % of inhibition of the cumulative licking time respect the control group.

Turning to `CS(=O)(=O)O.C[C@@H](NCc1ccc(OCc2cccc(Cl)c2)cc1)C(N)=O` [2-[4-(3-chlorobenzyloxy)benzylamino]-propanamide R isomer, (R)-2-[4-(3-chlorobenzyloxy)benzylamino]propanamide methanesulfonate], the IC90 (in general, the concentration at which the effect reaches the 90% level) against MAO-B is 32.3 µM. Further, the values for the IC50 on N-type calcium channels and on Na channel Nav 1.3 were 20 µM and 39 µM, respectively. For the same compound, the “FORMALIN TEST % inibition” value in the experiment with mice is given as 39%.
For `CS(=O)(=O)O.C[C@@H](NCc1ccc(OCc2ccccc2F)cc1)C(N)=O` [2-[4-(2-fluorobenzyloxy)benzylamino]-propanamide R isomer, (R)-2-[4-(2-fluorobenzyloxy)benzylamino]propanamide methanesulfonate], in that order: 2500 µM, 29.2 µM, 149 µM and 80%.
The like results for `CC(NCc1ccc(OCc2cccc(Cl)c2)cc1)C(N)=O` (single isomer, unassigned; isomer 2) [2-[4-(3-chlorobenzyloxy)benzylamino]-propanamide S isomer, 2-[4-(3-chlorobenzyloxy)benzylamino]-propanamide] were, in that order, 1.64 µM, 94 µM, 79 µM and 45%.
For `CNC(=O)C(C)NCc1ccc(OCc2ccccc2Cl)cc1` (single isomer, unassigned; isomer 2) [2-[4-(2-chlorobenzyloxy)benzylamino]-N-methyl-propanamide S isomer, 2-[4-(2-chlorobenzyloxy)benzylamino]-N-methyl-propanamide], in that order: 2.8 µM, 30 µM, 210 µM and 32%.
The compound `CNC(=O)[C@@H](C)NCc1ccc(OCc2ccccc2Cl)cc1.CS(=O)(=O)O` [2-[4-(2-chlorobenzyloxy)benzylamino]-N-methyl-propanamide R isomer, (R)-2-[4-(2-chlorobenzyloxy)benzylamino]-N-methylpropanamide methanesulfonate] registered an IC90 against MAO-B of 122 µM. Also, the IC50 (as a rule, the concentration needed to halve the response being measured) turned out to be 8.4 µM at N-type calcium channels and 38 µM at Na channel Nav 1.3. In the experiment on mice, the “FORMALIN TEST % inibition” value is listed as 49%.
The like results for `CC(NCc1ccc(OCc2ccccc2F)cc1)C(N)=O` (single isomer, unassigned; isomer 2) [2-[4-(2-fluorobenzyloxy)benzylamino]-propanamide S isomer, 2-[4-(2-fluorobenzyloxy)benzylamino]-propanamide] were, in that order, 28.4 µM, 23 µM, 202 µM and 79%.
